Experimental data as given in article PMC6332289, “Anti-Oxidant, Anti-Aging, and Anti-Melanogenic Properties of the Essential Oils from Two Varieties of Alpinia zerumbet” (Molecules, 2015).
Values after ≈ are worked out from the molar mass of the structure shown.

Molecular target: T1, Clostridium histolyticum collagenase (ChC)
T1 construct: gene colG; commercial collagenase from Sigma-Aldrich
Assay: FALGPA hydrolysis, absorbance at […] nm
Format: biochemical, Hathewaya histolytica
Settings: 50 mM tricine, 400 mM NaCl, 10 mM CaCl2, pH 7.5; 0.8 mM FALGPA; 15 min preincubation

In the case of `CC1(C)CC[C@]2(C(=O)O)CC[C@]3(C)C(=CC[C@@H]4[C@@]5(C)CC[C@H](O)C(C)(C)[C@@H]5CC[C@]43C)[C@@H]2C1` [oleanolic acid], the IC50 is reported as 21 ± 0.2 µg/mL (≈ 46 µM).
